This note sets out measurements from ChEMBL document CHEMBL1140665, “Eco-friendly synthesis and study of new plant growth promoters: 3,3'-Diindolylmethane and its derivatives” (2007).

Common to all, as to type: functional
Test [1] concerns Oryza sativa. Briefly: Growth promoting activity in Oryza sativa assessed as shoot length at 500 ppm on day 5.
The test system of test [2] is Oryza sativa. The test can be described thus: Growth promoting activity in Oryza sativa assessed as root length at 62.5 ppm on day 5.
Test [3] relates to Oryza sativa. The test can be described thus: Growth promoting activity in Oryza sativa assessed as root length at 31.25 ppm on day 5.
Test [4] deals with Oryza sativa. Briefly: Growth promoting activity in Oryza sativa assessed as shoot length at 31.25 ppm on day 5.
Test [5] concerns Oryza sativa. Briefly: Growth promoting activity in Oryza sativa assessed as shoot length at 1000 ppm on day 5.
Test [6] deals with Oryza sativa. Briefly: Growth promoting activity in Oryza sativa assessed as root length at 1000 ppm on day 5.
In test [7] the test system is Oryza sativa. Briefly: Growth promoting activity in Oryza sativa assessed as root length at 500 ppm on day 5.
The subject of test [8] is Oryza sativa. The test can be described thus: Growth promoting activity in Oryza sativa assessed as root length at 125 ppm on day 5.
Test [9] relates to Oryza sativa. The test can be described thus: Growth promoting activity in Oryza sativa assessed as shoot length at 250 ppm on day 5.
Test [10] concerns Oryza sativa. Briefly: Growth promoting activity in Oryza sativa assessed as root length at 250 ppm on day 5.
Test [11] has as its system Oryza sativa. Briefly: Growth promoting activity in Oryza sativa assessed as shoot length at 62.5 ppm on day 5.
Test [12] deals with Oryza sativa. The test can be described thus: Growth promoting activity in Oryza sativa assessed as shoot length at 125 ppm on day 5.

The structures appear in SMILES notation.

Consider `Cn1cc(Cc2cn(C)c3ccccc23)c2ccccc21`, for which the Activity was 8.37 mm in test [1]; 23.5 mm in test [2]; 20.4 mm in [3]; 9.2 mm in test [4]; 6.1 mm in [5]; 16.72 mm in test [6]. Also, the Activity in test [7] was 19.7 mm; in test [8], 25.4 mm; in [9] it was 10.3 mm; in [10], 22.52 mm; in [11], 10.7 mm; in [12], 12.2 mm.
As for `COc1ccc2[nH]cc(Cc3c[nH]c4ccc(OC)cc34)c2c1`, the Activity stood at 13.4 mm in test [1]; 30.6 mm in test [2]; 28.4 mm in [3]; 13.4 mm in [4]; 11.6 mm in test [5]; 23.62 mm in test [6]. Also, the Activity turned out to be 26.5 mm in test [7]; 33.8 mm in [8]; 15.23 mm in test [9]; 29.42 mm in test [10]; 15.3 mm in test [11]; 17.6 mm in [12].
As for `Brc1ccc2[nH]cc(Cc3c[nH]c4ccc(Br)cc34)c2c1`, the Activity was determined as 8.53 mm in test [1]; 21.1 mm in test [2]; 18.6 mm in [3]; 9.5 mm in test [4]; 6.7 mm in [5]; 13.8 mm in [6]. Also, the Activity in [7] came out at 16.6 mm; in test [8], 23.2 mm; in test [9] it was 10.7 mm; in test [10], 19.72 mm; in test [11], 11 mm; in [12], 12.7 mm.
Regarding `Cn1cc(Cc2cn(C)c3ccc(Br)cc23)c2cc(Br)ccc21`, the Activity in [1] amounted to 8.12 mm; in test [2] it was 19.6 mm; in test [3], 16.8 mm; in test [4] it was 9.05 mm; in test [5], 5.92 mm; in [6] it was 12.9 mm. Also, the Activity came to 15.9 mm in [7]; 22.6 mm in test [8]; 9.72 mm in test [9]; 18.56 mm in test [10]; 10.1 mm in test [11]; 11.4 mm in [12].
Consider `Cc1c(Cc2c(C)n(C)c3ccccc23)c2ccccc2n1C`, for which the Activity stood at 14.7 mm in [1]; 36.4 mm in test [2]; 34.2 mm in test [3]; 14.7 mm in test [4]; 12 mm in test [5]; 30.72 mm in test [6]. The Activity came to 33.4 mm in test [7]; 39.4 mm in test [8]; 16.8 mm in test [9]; 35.42 mm in test [10]; 16.4 mm in test [11]; 18.7 mm in test [12].
For the compound `Cn1cc(Cc2cn(C)c3ccc([N+](=O)[O-])cc23)c2cc([N+](=O)[O-])ccc21`, the Activity worked out at 7.82 mm in test [1]; 18.9 mm in test [2]; 16.2 mm in test [3]; 8.87 mm in test [4]; 5.76 mm in test [5]; 12.12 mm in test [6]. Besides, the Activity in [7] turned out to be 15.2 mm; in test [8] it was 21.4 mm; in [9], 9.56 mm; in test [10], 18.16 mm; in test [11] it was 9.96 mm; in test [12], 11 mm.
For the compound `COc1ccc2c(c1)c(Cc1cn(C)c3ccc(OC)cc13)cn2C`, the Activity stood at 9.66 mm in [1]; 28.2 mm in test [2]; 25.7 mm in test [3]; 9.78 mm in test [4]; 7.8 mm in [5]; 20.78 mm in test [6]. The Activity is 23.3 mm in test [7]; 30.4 mm in test [8]; 11.42 mm in test [9]; 26.72 mm in test [10]; 11.5 mm in test [11]; 13.6 mm in [12].
In the case of `c1ccc(-c2[nH]c3ccccc3c2Cc2c(-c3ccccc3)[nH]c3ccccc23)cc1`, the Activity in test [1] was 15.5 mm; in [2], 35.9 mm; in test [3], 33.6 mm; in test [4], 15.2 mm; in test [5], 12.9 mm; in [6], 29.76 mm. Also, the Activity in test [7] was found to be 32.6 mm; in [8], 38.7 mm; in test [9], 17.32 mm; in [10], 34.2 mm; in [11] it was 17.4 mm; in test [12], 19.5 mm.
For the compound `Cc1[nH]c2ccccc2c1Cc1c(C)[nH]c2ccccc12`, the Activity was 16.3 mm in [1]; 42.8 mm in test [2]; 40.2 mm in test [3]; 16.4 mm in test [4]; 13.3 mm in [5]; 35.12 mm in [6]. The Activity in [7] turned out to be 38.5 mm; in test [8], 46.5 mm; in test [9] it was 18.57 mm; in [10], 40.66 mm; in test [11], 19.6 mm; in test [12] it was 21.1 mm.
On to `Cn1c(-c2ccccc2)c(Cc2c(-c3ccccc3)n(C)c3ccccc23)c2ccccc21`, for which the Activity in test [1] was 13.6 mm; in test [2], 31.2 mm; in test [3] it was 29.6 mm; in [4], 13.8 mm; in test [5], 10.8 mm; in test [6], 25.6 mm. Also, the Activity was 28.2 mm in [7]; 34.5 mm in test [8]; 15.01 mm in test [9]; 30.27 mm in test [10]; 15.4 mm in test [11]; 17.2 mm in test [12].
As for `c1ccc2c(Cc3c[nH]c4ccccc34)c[nH]c2c1` [ARUNDINE], the Activity in test [1] was determined as 10.9 mm; in test [2] it was 26.3 mm; in test [3], 24.6 mm; in [4], 11.2 mm; in test [5], 8.45 mm; in test [7] it was 22.4 mm. In addition, the Activity in test [8] came out at 29.5 mm; in test [11], 13.4 mm; in test [12], 15.7 mm.
Regarding `O=C(O)Cc1c[nH]c2ccccc12` [INDOLE-3-ACETIC ACID], the Activity is 7.66 mm in test [1]; 18.7 mm in test [2]; 15.6 mm in test [3]; 8.72 mm in test [4]; 5.28 mm in [5]; 14.4 mm in [7]. Also, the Activity in [8] stood at 20.3 mm; in [11], 9.81 mm; in [12] it was 10.6 mm.
